Test results taken from patent EP4019580A1, “REDUCTION OF FLUORINATED ACID IN FLUOROPOLYMERS” (3M Innovative Properties Company, priority 2020, dated 2022).

What was measured:
[1] = Cryogenic grinding of perfluorinated elastomers (Spex mill), MeOH extraction and LC/MS determination of perfluorinated carboxylic acids; type: physicochemical; conditions: 10 wt.-% BHT versus no radical scavenger
Description: (§1) The general procedures described in "3M Standard Method for PFAS in Articles of Commerce, Edition 1, 02 June 2020", including the test and analytical equipment, was followed. The disclosure of this document is incorporated herein by reference in its entirety. In particular, reference is made with regard to the experimental and analytical setup and methods used in the present disclosure to the chapter "Part 3: Instrumental Analysis", 3.1.1 "Analytical Equipment and Materials" as well as 3.1.2 "HPLC Conditions (exemplary)".
(§2) The submitted samples were dissolved in methanol prior to analysis. Standard solutions were prepared from an aqueous solution of Adona that was determined to have a concentration of 28.36% by NMR.
In this study the inhibition effect of radical scavengers on the generation of perfluorinated carboxylic acids during cryogenic grinding of PFE and PFE compounds was investigated. As example 1, PTFE 191 plus 10 wt.-% BHT as radical scavenger was used. The amount of BHT was added as a powder to the gum in the milling container. Comparative Example 1 was PTFE 191 without BHT or any other radical scavengers. […]
The perfluorinated carboxylic acids were determined by extraction of the grinded material with MeOH and subsequent LC/MS measurements. […]

[2] = Cryogenic grinding of crystalline perfluorinated polymers on the Spex mill, MeOH extraction and LC/MS determination of perfluorinated carboxylic acids; type: physicochemical; conditions: 10 wt.-% BHT versus no radical scavenger
Description: as §1, §2
In this study the inhibition effect of radical scavengers on the generation of perfluorinated carboxylic acids during cryogenic grinding of crystalline fluoropolymers was investigated. The polymers were grinded on a Spex or Retsch mill under the addition of BHT (2,6-Di-tert-butyl-4-methylphenol; CAS 128-37-0). The BHT was added as a powder to the polymer in the milling tube. Table 3. Milling conditions.
Perfluorinated carboxylic acids were extracted with MeOH and determined by LC/MS measurements as published in the 3M Standard test method for the determination of PFOA in articles of commerce. […]

lowers the PFOA formation [1]: within three orders of magnitude
formation of C3-C7 Perfluorocarboxylic acids is reduced by a factor of [2]: 18
SMILES: Cc1cc(C(C)(C)C)c(O)c(C(C)(C)C)c1 [BHT, 2,6-Di-tert-butyl-4-methylphenol]
